From article PMC11868579 (Nature Communications, 2024)
Several values for one entry are separate records, joined by “and”; a condition that tells them apart may be missing. Equal values may be shown once.

Experiments:
eIF4E-dTAG protein = target: T1, eIF4E-dTAG protein (Homo sapiens, UniProt P06730); test: CETSA of eIF4E-dTAG protein in H1299 C3-1 cells; type: cell-based; settings: relative to control = 1.000, n=3
T1 construct: expressed in transfected cells
Method: Cells (1.5 × 10^6 cells) were plated into 75 cm^2 flasks and allowed to attached overnight. After treatment with compound 4 or 5 for 6 h, they were harvested by trypsinisation and washed x2 in ice cold PBS. Cells were resuspended in 1 ml of cold PBS supplemented with protease and phosphatase inhibitors (Fisher Scientific, cat#1861281). Resuspended cells were divided into 100 μl aliquots and centrifuged at 300 x g for 3 min at 4 °C. Following centrifugation, 75μl of supernatant was removed and cells resuspended in the remaining volume. Cell suspensions were heated at 40.9, 43.7, 48.1, 52.9, 57.6, 62.4, 67.2, 71.9, 76.3 and 79.1 °C for 3 mins followed by cooling at 20 °C for 3 min[25]. Suspensions were freeze-thawed twice using liquid nitrogen. Soluble fractions were separated from cell debris by centrifuging at 20,000 x g for 30 min at 4 °C. Samples were then analysed by Western Blot. […]
Vinculin was used as a loading control. c Thermal stabilisation of eIF4E-dTAG protein by compound 4 or 5 binding. Quantification of immunoblots from H1299 C3-1cells incubated at 57.6 °C, following treatment with compound 4 (50, 25, 10, 5, 1, 0.5 μM) or compound 5 (50 μM) for 6 hr. Vinculin was […]
(1 picture or pasted object on this page, not shown here)

full-length eIF4G:eIF4E = target: T2, full-length eIF4G:eIF4E (Homo sapiens, UniProt P06730); test: eIF4G:eIF4E binding, summary over cell line lysates; type: biochemical
T2 construct: endogenous in cells; host or cells: HeLa, SW620 or H1299 cells (lysates; intact H1299 cells in A13)
T2 sequence (P06730 2-217 limits assumed): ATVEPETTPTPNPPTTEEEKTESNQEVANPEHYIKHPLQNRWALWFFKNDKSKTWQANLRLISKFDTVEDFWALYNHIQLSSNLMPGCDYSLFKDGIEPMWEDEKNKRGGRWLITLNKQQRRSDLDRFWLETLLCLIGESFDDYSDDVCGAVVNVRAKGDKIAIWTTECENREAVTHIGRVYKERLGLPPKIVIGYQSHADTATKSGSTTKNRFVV
Method: This assay uses plates with carbon electrodes and electro-chemiluminescent labels (SULFO-TAGs) that are conjugated to detection antibodies. When an electric current is applied to the plate electrodes the SULFO-TAG labels will emit light that is measured to quantify analytes in the sample. […] For measuring exogenously expressed FLAG-tagged-eIF4E, 96-well Multiarray SECTOR plates with carbon electrodes (MSD, cat#L15XB) were coated with 25 ul of 4 µg/ml anti-FLAG M2 (Sigma-aldrich, cat#F1804, RRID:AB_262044) in PBS for 1 hr at RT with shaking. The plates were washed with 3 ×150 µl/well MSD wash buffer (cat#R61AA-1; 0.2% Tween-20 in PBS), then blocked with 150 µl/well block buffer (MSD, cat# R93AA) for 1 h. […] The incubated plates were washed 4x in 150 µl in MSD wash buffer and were re-blocked by the addition of 25 μl of blocking buffer containing a 1:500 dilution of the secondary antibody and incubated for 1 hr at RT with rotational shaking. […] Plates were then washed again 4x in 150 µl in MSD wash buffer and 25 μl of a 1:50 dilution of Goat anti-rabbit Sulfo-Tag (MSD, Cat# R32AB-1) in MSD blocking buffer was added and the plates incubated for 1 h at RT with rotational shaking. After a final wash step, 150 μl Read Buffer T4X (MSD, Cat# R92-TC2) was added and the plate read using the MSD QuickPlex SQ 120 plate reader.

eIF4E–4E-BP1 interaction = eIF4E–4E-BP1 interaction (Homo sapiens, UniProt P06730); test: Electro-chemiluminescent binding assay, eIF4E:4E-BP1, SW620 cell lysates; type: biochemical; set-up: endogenous in cells; host or cells: SW620 cell lysates; settings: for 4E-BP1:eIF4E luminescence signal normalised to DMSO control: SW620, Expt 1, Expt 2, Fig. 4d
eIF4E–4E-BP1 interaction, sequence (P06730 2-217 limits assumed): as above
Method: This assay uses plates with carbon electrodes and electro-chemiluminescent labels (SULFO-TAGs) that are conjugated to detection antibodies. When an electric current is applied to the plate electrodes the SULFO-TAG labels will emit light that is measured to quantify analytes in the sample. […] The plates were washed with 3 ×150 µl/well MSD wash buffer (cat#R61AA-1; 0.2% Tween-20 in PBS), then blocked with 150 µl/well block buffer (MSD, cat# R93AA) for 1 h. […] The incubated plates were washed 4x in 150 µl in MSD wash buffer and were re-blocked by the addition of 25 μl of blocking buffer containing a 1:500 dilution of the secondary antibody and incubated for 1 hr at RT with rotational shaking. […] Plates were then washed again 4x in 150 µl in MSD wash buffer and 25 μl of a 1:50 dilution of Goat anti-rabbit Sulfo-Tag (MSD, Cat# R32AB-1) in MSD blocking buffer was added and the plates incubated for 1 h at RT with rotational shaking. After a final wash step, 150 μl Read Buffer T4X (MSD, Cat# R92-TC2) was added and the plate read using the MSD QuickPlex SQ 120 plate reader.

eIF4E = target: T3, eIF4E (Homo sapiens, UniProt P06730); test: CETSA in intact H1299 cells; type: cell-based; settings: 6 hrs; for eIF4E stabilisation, eIF4E normalised to vinculin relative to average control (plotted on graph), Average: H1299, 57 °C, control = 1.000
T3 construct: endogenous in cells; host or cells: H1299
T3 sequence (P06730 whole entry): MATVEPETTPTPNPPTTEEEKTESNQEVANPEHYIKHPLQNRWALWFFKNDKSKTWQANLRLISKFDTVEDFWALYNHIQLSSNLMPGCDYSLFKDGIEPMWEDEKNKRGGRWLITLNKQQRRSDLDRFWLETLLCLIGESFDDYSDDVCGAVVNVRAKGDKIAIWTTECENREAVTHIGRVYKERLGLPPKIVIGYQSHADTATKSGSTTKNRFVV
Method: Cells (1.5 × 10^6 cells) were plated into 75 cm^2 flasks and allowed to attached overnight. After treatment with compound 4 or 5 for 6 h, they were harvested by trypsinisation and washed x2 in ice cold PBS. Cells were resuspended in 1 ml of cold PBS supplemented with protease and phosphatase inhibitors (Fisher Scientific, cat#1861281). Resuspended cells were divided into 100 μl aliquots and centrifuged at 300 x g for 3 min at 4 °C. Following centrifugation, 75μl of supernatant was removed and cells resuspended in the remaining volume. Cell suspensions were heated at 40.9, 43.7, 48.1, 52.9, 57.6, 62.4, 67.2, 71.9, 76.3 and 79.1 °C for 3 mins followed by cooling at 20 °C for 3 min[25]. Suspensions were freeze-thawed twice using liquid nitrogen. Soluble fractions were separated from cell debris by centrifuging at 20,000 x g for 30 min at 4 °C. Samples were then analysed by Western Blot.

T1 sequence (P06730 with tags, fused parts or gaps): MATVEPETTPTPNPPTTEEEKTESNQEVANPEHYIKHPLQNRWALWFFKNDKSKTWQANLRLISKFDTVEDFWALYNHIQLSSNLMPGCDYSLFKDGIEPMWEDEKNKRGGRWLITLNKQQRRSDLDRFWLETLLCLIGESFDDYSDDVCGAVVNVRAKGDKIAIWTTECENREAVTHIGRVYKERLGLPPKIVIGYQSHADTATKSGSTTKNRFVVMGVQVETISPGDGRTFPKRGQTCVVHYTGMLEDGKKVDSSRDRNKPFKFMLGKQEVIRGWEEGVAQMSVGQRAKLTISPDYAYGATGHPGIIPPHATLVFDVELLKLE

Structure (SMILES)	Thermal stabilisation of eIF4E-dTAG protein, Average (eIF4E-dTAG protein; 0.5 μM)	Thermal stabilisation of eIF4E-dTAG protein, Average (eIF4E-dTAG protein; 1 μM)	Thermal stabilisation of eIF4E-dTAG protein, Average (eIF4E-dTAG protein; 5 μM)	Thermal stabilisation of eIF4E-dTAG protein, Average (eIF4E-dTAG protein; 10 μM)	Thermal stabilisation of eIF4E-dTAG protein, Average (eIF4E-dTAG protein; 25 μM)	Thermal stabilisation of eIF4E-dTAG protein, Average (eIF4E-dTAG protein; 50 μM)	EC50 (full-length eIF4G:eIF4E; read-out: EC50s, eIF4G:eIF4E electro-chemiluminescent binding assay, three different cell line lysates) [µM]	IC50 (full-length eIF4G:eIF4E; read-out: full-length eIF4G:eIF4E IC50, lysates and intact cell engagement assays) [µM]	4E-BP1:eIF4E luminescence signal normalised to DMSO control (eIF4E–4E-BP1 interaction; 0.4 μM)	4E-BP1:eIF4E luminescence signal normalised to DMSO control (eIF4E–4E-BP1 interaction; 4 μM)	4E-BP1:eIF4E luminescence signal normalised to DMSO control (eIF4E–4E-BP1 interaction; 12 μM)	4E-BP1:eIF4E luminescence signal normalised to DMSO control (eIF4E–4E-BP1 interaction; 40 μM)	effect on 4E-BP1 binding to eIF4E (eIF4E–4E-BP1 interaction; SW620 cell lysates)	4E-BP1:eIF4E SW620, luminescence ratio normalised to DMSO control (eIF4E–4E-BP1 interaction; SW620 lysates, 100 µM, 30 min, single experiments Expt 1, Expt 2)	eIF4E stabilisation, eIF4E normalised to vinculin relative to average control (plotted on graph), Average (eIF4E; 0.5 μM)	eIF4E stabilisation, eIF4E normalised to vinculin relative to average control (plotted on graph), Average (eIF4E; 1 μM)	eIF4E stabilisation, eIF4E normalised to vinculin relative to average control (plotted on graph), Average (eIF4E; 5 μM)	eIF4E stabilisation, eIF4E normalised to vinculin relative to average control (plotted on graph), Average (eIF4E; 10 μM)	protection of eIF4E from thermal denaturation (eIF4E; H1299 cells, 50 µM)	EC50 (eIF4E; read-out: EC50, thermal protection of eIF4E (target engagement), intact H1299 cells, 57.6 °C) [µM]
CC[C@H](O[C@H](C)CO)c1ccc(-c2ccccc2F)cc1NCCO [Compound 4]	1.070	1.047	1.235	1.737	1.613	1.946	1.4 to 2.6	1 to 2	98.1% and 93.2%	74.9% and 84.1%	74.8% and 76%	76.2% and 83.6%	not 4E-BP1 binding to eIF4E	103% and 91%	1.140	1.298	1.771	2.067	protected eIF4E from thermal denaturation	2
CC[C@@H](O[C@H](C)CO)c1ccc(-c2ccccc2F)cc1NCCO [Compound 5]	–	–	–	–	–	1.004	–	–	–	–	–	–	–	–	–	–	–	–	–	–
